Molecular target: T1, PA1396 (Pseudomonas aeruginosa, UniProt Q9I3U8)
T1 construct: reporter rows: PA1396 in P. aeruginosa cells
Experiment: auto-phosphorylation in liposomes, […] SDS-PAGE
Format: biochemical
Details: 10 mM MgCl2, 1 mM DTT, room temperature, 10 min

T1 sequence (Q9I3U8 entry or part of it): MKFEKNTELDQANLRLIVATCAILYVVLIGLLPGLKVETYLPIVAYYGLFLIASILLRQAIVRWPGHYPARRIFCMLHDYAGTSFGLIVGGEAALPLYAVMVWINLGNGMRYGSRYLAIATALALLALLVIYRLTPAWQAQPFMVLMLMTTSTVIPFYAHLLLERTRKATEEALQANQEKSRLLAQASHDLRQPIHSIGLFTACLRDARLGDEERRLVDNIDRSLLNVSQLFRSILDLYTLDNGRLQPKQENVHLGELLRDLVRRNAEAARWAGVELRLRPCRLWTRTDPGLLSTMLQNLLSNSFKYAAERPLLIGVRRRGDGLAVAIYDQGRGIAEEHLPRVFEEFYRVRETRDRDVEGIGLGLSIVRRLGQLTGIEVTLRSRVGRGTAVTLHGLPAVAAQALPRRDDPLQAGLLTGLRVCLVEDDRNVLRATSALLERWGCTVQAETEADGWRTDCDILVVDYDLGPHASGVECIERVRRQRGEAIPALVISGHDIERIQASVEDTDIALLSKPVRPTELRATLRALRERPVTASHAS

Row | SMILES | auto-phosphorylation in liposomes, 32P SDS-PAGE (agonist, 10 µM) | auto-phosphorylation in liposomes, 32P SDS-PAGE (antagonist against 10 µM DSF)
1 | CC(C)CCCCCCC/C=C\C(=O)O [C1, cis-11-methyl-2-dodecenoic acid] | addition of DSF to PA1396-loaded liposomes led to a robust increase in the level | –
2 | CC(C)CCCCCCC/C=C\C(=O)NS(C)(=O)=O [C23, (Z)-11-methyl-N-(methylsulfonyl)dodec-2-enamide] | – | C23 blocks the recognition of DSF by PA1396
